These results are taken from US12472223B2, “Methods for reducing symptoms of multiple sclerosis using a six-amino acid long peptide that inhibits CD40-CD154 interaction” (OP-T LLC, priority 2019, dated 2025).

One series deals with CD4+ and CD8+ cells. Briefly: CD4/CD8 ratio in blood of peptide-treated NOD mice (flow cytometry). It is filed as in vivo, mouse. The procedure: (§1) Peptides were designed based on the amino acid sequence of mouse CD154 protein (SEQ ID NO:1) in the SwissPro database. These pre-designed peptides were then ordered from as made-to-order by New England Peptide. The lyophilized peptides were suspended in phosphate buffered saline at 1 mg/ml. 100 μg of a particular peptide was then injected into the tail vein of 8-9 week old NOD mice. Control mice received 100 μl of phosphate buffered saline. This is well before the onset of diabetes, but after damage to pancreatic islets has begun. Three days after the initial injection, another 100 μg of peptide (or 100 μl of phosphate buffered saline in the case of the Control mice) was injected into the tail vein. Mice were then injected with peptide (or phosphate buffered saline) on a weekly basis. At 10 weeks of age, mice were monitored for diabetes, as indicated by a blood glucose level greater than 250 mg/dL for three consecutive days. During this time, blood was also taken from the tail vein, or by sub-mandibular venal puncture, and the level of CD4+ and CD8+ cells determined by flow cytometry using antibodies for CD4 protein and CD8 protein.
In general terms: In flow cytometry, cells or beads pass a laser one at a time.

The test system of another series is NOD mice. Briefly: Development of diabetes in NOD mice treated with CD154 peptides. It is filed as in vivo, mouse. As to conditions: 100 μg peptide into tail vein of 8-9 week old NOD mice, again after 3 days, then weekly; diabetes = blood glucose >250 mg/dL for three consecutive days. The procedure:
as §1

In the next series the test system is EAE induced C57BL/6 mice. Briefly: EAE disease score in MOG35-55 induced C57BL/6 mice. The format is in vivo, mouse. An excerpt: One group of mice-C57BL/6 mice from Taconic (Hudson, NY, USA) received KGYY6 (SEQ ID NO: 29) intravenous (IV) injections 3 days and 1 day prior to EAE induction, while another control group received a vehicle of phosphate buffered saline (PBS). EAE was then induced and the mice started to show symptoms on day 10, which is standard for these mice under these conditions. This is further depicted in FIG. 11. On days 13, 20, and 27, the KGYY6 group of mice receive a boost of peptide, while the other group again received PBS via IV injection. […] By day 13, there was a statistically significant difference that lasted throughout the experiment. In FIG. 11—*—asterisks—denote p-value: *—one asterisk is <0.05; **—two asterisks is <0.01; […] is <0.001; and ****—four asterisks is <0.0001. This is a two-way ANOVA with Sidak's multiple comparisons test. Arrows in above lines in FIG. 11 represent days −3, −1, 13, 20, and 27, which correspond to days on which the mice received the KGYY6. Mice were disease scored daily in this study as described in more detail below.
The EAE mouse model can be highly variable even when attempting to control all possible parameters. This variability in EAE may be due to seasonal variations as well as litter differences in the mice. In order to minimize litter-to-litter and seasonal variations, experiments and studies were performed that had 10 mice per group and the mice were randomly mixed once they arrived from the vendor. Female 10-12 week old C57BL/6 mice were immunized subcutaneously on the upper back/neck with 100 μl completely emulsified MOG35-55 peptide (50 μg in 50 μl PBS) and complete Freund's adjuvant (CFA; 75 μg M. Tuberculosis H37 RA (Becton Dickinson and Company (Franklin Lake, NJ, USA)) in 50 μl incomplete Freund's adjuvant (mineral oil)), followed by i.p. pertussis toxin (PT; 200 ng (Sigma-Aldrich® (St. Louis, MO, USA)) in 100 μl PBS) injections. Mice were then randomly assigned to a treatment cohort or vehicle control cohort. One cohort of mice received intravenous injections of the KGYY6 (SEQ ID NO: 29)—25 μg in 100 μl PBS per mouse on days −3, −1, 13, 20, and 27 as described above. Day 0 is the reference starting point for EAE induction. Another cohort received peptide on days −3, −1, 6, 11, 13, and 15. Vehicle control mice received injections of PBS.
All mice were monitored daily for disease and scored in the following manner: 0—no abnormalities; 0.5—clutching hind limbs; 1—limp tail or weak hind limbs and/or wobbly gait; 1.5—limp tail and clutching hind limbs; 2—limp tail and weak hind limbs and/or wobbly gait wherein the mouse supports itself and propels itself using hind limbs; 2.5—limp tail and weak hind limbs and/or wobbly gait wherein the mouse cannot support and propel itself using hind limbs, but the paws are moving. 3—limp tail and one weak hind limb, while the other hind limb is completely paralyzed wherein the mouse uses the weak hind limb to propel itself in some fashion. […] 5—complete paralysis of hind quarter and weak forelimb(s). The data are reported as the mean daily clinical score for all animals in each group. Mice reaching a level 5 or losing more than 20% of their bodyweight are euthanized.
For this study, a group of EAE induced mice were treated with KGYY6 via intravenous (IV) injections on days 11, 13, and 15. Another group of mice were pretreated on days −3 and −1, and received further treatments on days 6, 11, 13, and 15. […]

A further series has as its system CD69. Nature of the series: CD69 expression on T cells from dLN and spleen of KGYY6 treated EAE mice. It is filed as in vivo, mouse. As to conditions: for number of Th40 cells expressing CD69: after 33 days. The procedure:
In this study, the number of CD69 expressing cells were measured and determined in draining lymph nodes (dLN) and spleens harvested from EAE mice at the end of the studies as described in Examples 7, 8, and 9 and the administration of KGYY6, after 33 days.
Lymphocytes from dLN or spleen were stained and gated on the Th40 or conventional CD4 T cells then CD69 expression was analyzed.

A further series deals with CD62L. Briefly: CD62L expressing T cells from dLN and spleen of KGYY6 treated EAE mice. It is filed as in vivo, mouse. As to conditions: Th40 and conventional CD4 T cells, versus PBS. The source says:
L-selectins are expressed on T cells and, depending upon activation status, expression rapidly cycles between high and low levels, thus allowing cells to crawl to areas of inflammation, and to extravasate into the tissue. (Mao-Draayer, Y., et al., Clinical Immunol. 175:10-5, 2017; Butcher, E. C., et al., Science, 272 (5258): 60-6, 1997). CD62L is an L-selectin that has generally been associated with naïve T cells, given its importance in lymph node retention. (Chao, C. C., et al., J. Immunol., 159:1686, 1997; Tedder, T. F., et al., Behring Inst. Mitt., 92:165, 1993). Rather than considering CD62L as a biomarker for naïve T cells, it may be possible that CD62L may be involved in lymph node retention of potentially pathogenic effector cells. The number of CD62L expressing Th40 and conventional CD4 T cells from both spleens and dLN of KGYY6 treated mice were compared to mice treated with vehicle (PBS) only (the control).

In a further series the test system is intracellular cytokines. Briefly: Intracellular cytokine expression in Th40 and conventional CD4 T cells ex vivo from KGYY6 treated EAE mice. More on the design: species or system mouse. The method, then: Intracellular cytokine expression profiles in Th40 and conventional CD4 T cells were examined immediately ex-vivo after 33 days and at the end of the study as described in Example 7.
Other cytokines, such as TNFα, IFNγ, IL-2, and IL-17A were unchanged in response to KGYY6 treatment in both cell types. […] Lymphocytes from dLN or spleen were stained and gated on the Th40 or conventional CD4 T cells then intracellular levels were analyzed. FIGS. 18A-D represent the Th40 cells from spleen. FIGS. 19A-D represent the Th40 cells from dLN. FIGS. 20A-D represent conventional CD4 T cells from the spleen. FIGS. 21A-D represent conventional CD4 T cells from dLN.

In series [1] the test system is Th40 or conventional CD4 T cells. Briefly: Memory cell and Th40 cell levels in KGYY6 treated EAE mice. The format is in vivo, mouse. The procedure:
This study sought to determine whether treatment with KGYY6 had any effect on memory cell levels when administered as described in Example 7 above.
C57BL/6 mice were EAE induced then lymphocytes were stained and gated on Th40 or conventional CD4 T cells and effector and central memory cell levels analyzed in dLN (FIGS. 22A-22D) and spleen (FIGS. 23A-D). Significance was calculated by t-test.

The subject of a further series is CD40. Nature of the series: FITC-conjugated KGYY6 staining of PBMC, dLN and splenic lymphocytes. The format is binding, mouse. An excerpt:
To confirm that KGYY6 binds to the intended target cells, peripheral blood was […], dLN lymphocytes, and splenic lymphocytes from mice at 6 and 13 days out from receiving the full EAE regimen. These cells were then stained with an FITC-conjugated KGYY6.
To confirm that the KGYY6 peptide binds specifically to CD40, PBMC was stained from C57BL/6 mice that have the CD154-interacting domain of CD40 knocked out (B6.CD40KO).
FIG. 24A is a dot plot of PBMC, dLN, and splenic lymphocytes that were harvested and then stained. […] CD40 with heat-mapping for KGYY6. Dot plots on the right are CD62L v. CD44 with heat-mapping for KGYY6. […] The results shown in FIG. 24A are from 6 days post EAE induction. FIG. 24B is a histogram depicting KGYY6 staining of B6.CD40KO, control, non-induced C57BL/6, and EAE-induced C57BL/6 mice, 6 and 13 days post induction. Data represents two mice at day 6, three mice at day 13, all with similar results.

[2] abbreviates: Th40 and conventional CD4 T cells, dLN and spleen.
The mark [3] stands for this setting: spleen and dLN, Th40 or conventional CD4 T cells.

With `CSCC[C@H](NC(=O)[C@@H](NC(=O)[C@H](Cc1ccc(O)cc1)NC(=O)[C@H](Cc1ccc(O)cc1)NC(=O)CNC(=O)[C@H](CCCCN)NC(=O)[C@H](CCCCN)NC(=O)[C@H](C)NC(=O)[C@H](Cc1c[nH]c2ccccc12)NC(=O)[C@H](CCC(N)=O)NC(=O)[C@H](CC(C)C)NC(=O)[C@@H](N)C(C)C)[C@@H](C)O)C(=O)N[C@@H](CCCCN)C(=O)N[C@@H](CO)C(=O)N[C@@H](CC(N)=O)C(=O)O` [15-mer peptide, VLQWAKKGYYTMKSN], the “compromise of the immune system as determined by the CD4/CD8 ratio” value with CD4+ and CD8+ cells is “did not result in compromise of the immune system”.
Turning to “AKKGYY [KGYY6, 6-amino acid core region of the 15-mer]”, the “development of diabetes in NOD mice” value in the series with NOD mice is “significant effects on the development of diabetes”. Further, the EAE disease course result is given as “significantly less severe” in the series with EAE induced C57BL/6 mice (25 μg IV on days -3, -1, 13, 20, 27, versus PBS control); “significantly less severe disease course” in the series with EAE induced C57BL/6 mice (pretreated days -3, -1, further treatments days 6, 11, 13, 15, versus control); “less severe disease course compared to control” in the series on EAE induced C57BL/6 mice (treat-at-symptom group, IV on days 11, 13, 15). Further, in the series with EAE induced C57BL/6 mice (pretreated, boosts from day 6 versus from day 13), the “EAE disease severity, early versus later boosts” value was “overall less severe disease if the boosts started early”. Also, the “CD69 expressed per cell” value is given as “significantly more CD69 per cell” in the series on CD69 (Th40 cells from spleen, versus vehicle) and “did no change the amount of CD69 per cell” with CD69 (conventional CD4 T cells). In the series on CD69 (dLN and spleen, versus controls), the “number of conventional CD4 T cells expressing CD69” value is recorded as “increased by KGYY6 treatment”. Moreover, the “number of Th40 cells expressing CD69” value in the series with CD69 (dLN, versus vehicle) was “increased”; in the series on CD69 (spleen, versus untreated), “significantly greater number”. The “number of CD62L expressing cells” value with CD62L is “no difference in number of CD62L expressing cells”. Besides, in the series with intracellular cytokines (setting [2]), the IFNγ result was “unchanged”. In addition, the IL-2 entry in the series on intracellular cytokines (setting [2]) was “unchanged”. Further, the IL-17A entry with intracellular cytokines (setting [2]) is listed as “unchanged”. The TNFα entry in the series with intracellular cytokines (setting [2]) was “unchanged”. In addition, the “intracellular IL-10” value in the series with intracellular cytokines (Th40 cells, dLN or spleen) is reported as “no difference in intracellular IL-10 expression”; in the series on intracellular cytokines (conventional CD4 T cells from dLN, day 33), “increase in intracellular IL-10”. Moreover, in series [1] (EAE mice treated with KGYY6), the Th40 cell population entry is on record as “did not cause a decrease in the Th40 cell population”. The “CD44+CD62L+ (central memory) cell levels” value in series [1] (setting [3]) is reported as “no difference in the levels of those memory phenotypes”. The “CD44+CD62L- (effector memory) cell levels” value in series [1] (setting [3]) is “no difference in the levels of those memory phenotypes”. Moreover, the “staining of memory cells (CD62L versus CD44)” value was “stained primarily effector (CD44^+CD62L^−) and central memory (CD44^+CD62L^+) cells” in the series with CD40 (PBMC and spleen samples); “more diffuse pattern in dLN samples” in the series with CD40 (dLN samples). Further, in the series on CD40 (PBMC, CD154-interacting domain of CD40 knocked out), the “staining of B6.CD40KO cells” value was “did not stain the B6.CD40KO cells”. Besides, in the series with CD40 (PBMC, dLN, spleen), the “staining of CD40- cells” value is given as “not the CD40^− cells”. Moreover, in the series on CD40 (PBMC, dLN, spleen, 6 and 13 days post EAE induction), the “staining of CD4+CD40+ cells” value is reported as “stained the CD4^+CD40^+ cells”. Besides, the “staining of C57BL/6 PBMC” value in the series with CD40 (non-induced and EAE-induced C57BL/6 mice) was “readily stained both the non-induced and EAE-induced C57BL/6 mice”.
With KGYY (listed as Mus musculus), the EAE scores entry in the series on EAE induced C57BL/6 mice (4-mer administered prior to onset and then post onset, versus untreated mice) is “lower EAE scores compared to untreated mice”.
As to WAKKGYYTMK [10-mer], the “development of diabetes in NOD mice” value in the series on NOD mice is on record as “significant effects on the development of diabetes”.
